The results in this text go back to US5620864A, “Acceptor for fucosyl transferase” (Health Research, Inc., priority 1992, dated 1997).

Molecules are shown by their SMILES. “And” between values parts separate entries of the source, which are not always exact repeats. Identical values can stand only once.

Assay [1] has as its system α1,3-L-fucosyltransferase of the particulate fraction of ovarian tumor. Briefly: Assay of α1,3-fucosyltransferase with synthetic acceptors, ovarian tumor particulate fraction. The assay is classed as biochemical, human. The conditions noted are these: for Relative Percent: 2'-methyl LacNAc = 100; for [14C] Fucose Incorporated (CPM): acceptor 3.0 mM, 37° C. 18 h. How it is done: FIG. 2 The scheme for the preparation of the particulate and soluble fractions of human ovarian tumor.
(§1) An incubation mixture contained 50 mM HEPES-NaOH, pH 7.5, 5 mM MnC12, 7 mM ATP, 3 mM NaN3, the acceptor 0.3 mM (for serum enzyme) or 3.0 mM (for tumor enzyme), 0.125 μCi of GDP-[U-^14 C] Fuc (Sp. Act. 216 mCi/mmol) and enzyme in a total volume of 0.10 ml; the control incubation mixture had everything except the acceptor. At the end of incubation at 37° C. for 18 h, the mixture was diluted with 1 ml water and passed through Dowex-1-C1 column (1 ml in a Pasteur pipet). The column was washed twice with 1 ml water; the breakthrough and wash, which contained the [^14 C] fucosylated neutral acceptor, were collected together in a scintillation vial and counted for radioactivity using the scintillation coctail 3a70 (Research Products International, Mount Prospects, Ill.) and Beckman LS9000. The Dowex column was then eluted successively with 3 ml each of 0.1M and 0.2M NaCl; these eluates which contained the [^14 C] fucosylated sulfated acceptors, were counted for radioactivity as before. Corrections were made by subtracting the radioactivity in the water and NaCl eluates of the control incubation mixture from the corresponding test fractions. The duplicate runs of samples gave almost identical values, the difference being <5%.
This finding is quite different from what we found with the soluble fraction, where α1,4-fucosyltransferase activity seems to be greater than α1,3-fucosyltransferase activity. […] The different nature of the above enzymes was made further clear, when sulfated derivatives of LacNAc was tested as acceptors.

For assay [2], the system named is α1,3-L-fucosyltransferase of the soluble fraction of human ovarian tumor. Briefly: Assay of α1,3-fucosyltransferase with synthetic acceptors, partially purified enzyme of ovarian tumor soluble fraction. The class given is biochemical. The conditions noted are these: for [14C] Fucose Incorporated (CPM): acceptor 3.0 mM, 37° C. 18 h. How it is done:
as §1
As shown in the scheme set forth in FIG. 2, the α-L-fucosidase-free extract of the tissue (40 g), after concentration by 80% (NH4)2 SO4 precipitation was fractionated on bovine IgG glycopep-Sepharose in batches of 25 ml. After washing the column with the equilibration buffer, the bound enzyme was eluted with 1 M NaCl in the same buffer. The protein positive fractions were pooled and processed as shown in the scheme 2.0 ml of the above preparation was loaded on a Sephacryl S-200 column (Superfine:2.6 cm×88.0 cm) equilibrated at 4° C. with 50 mM Tris-HC1, pH 7.0 containing 0.15M NaCl and 0.1% Triton X-100 and eluted with the same buffer. Fractions of 3.0 ml were collected. The fucosyltransferase activity was located in the effluent fractions, by assaying first every 5th fraction and then obtaining the activity profile by assaying the alternate fractions in that range, using 2'-fucosyl LacNAc as the acceptor. […] Its elution position, which is slightly later than BSA, run separately on the same column, indicates its molecular weight as <67,000 daltons. […] The enzyme has been purified 66 fold over the soluble extract with a recovery of 6.2%. The enzyme at this stage lost its activity either kept frozen at -20° C. or left at 4° C. for more than a week. However, the enzyme at the end of the previous step was fairly stable for at least two months at 4° C. So this preparation of enzyme was used in acceptor ability comparison studies.
When α1,3-fucosyltransferase activity of the partially purified enzyme preparation from the soluble portion of ovarian tumor was measured and compared with the activity of other acceptors, the following results were obtained. 2'-methyl LacNAc, LacNAc and Galβ1, 3GlcNAc were respectively 100.0%, 60.6% and 565.5% active, indicating the presence of both α1,3 and α1,4 fucosyltransferase activities in this preparation.

Assay [3] has as its target T1, serum α1,3-L-fucosyltransferase (Homo sapiens, UniProt P51993).
T1 construct: Sera were collected from healthy females and ovarian cancer patients; from tissue; host or cells: blood serum of ovarian cancer patients and healthy females
T1 sequence (P51993 35-359 limits assumed): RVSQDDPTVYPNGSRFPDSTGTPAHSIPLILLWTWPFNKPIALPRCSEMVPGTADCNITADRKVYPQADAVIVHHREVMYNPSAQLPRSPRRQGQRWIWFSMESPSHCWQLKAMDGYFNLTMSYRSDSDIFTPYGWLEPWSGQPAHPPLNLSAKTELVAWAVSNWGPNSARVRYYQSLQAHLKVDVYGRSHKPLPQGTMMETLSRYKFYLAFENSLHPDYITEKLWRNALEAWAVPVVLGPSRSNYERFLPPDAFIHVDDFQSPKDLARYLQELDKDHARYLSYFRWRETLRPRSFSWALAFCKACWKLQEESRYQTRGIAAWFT
In words: Assay of α1,3-fucosyltransferase with various synthetic acceptors, ovarian cancer sera as enzyme source. The assay is classed as biochemical. The settings on record: for [14C] Fucose Incorporated (CPM): acceptor 0.3 mM, 37° C. 18 h. How it is done: Sera were collected from healthy females and ovarian cancer patients admitted to Roswell Park Cancer Institute in Buffalo, N.Y., USA. Ovarian tumor tissues were obtained during surgical procedures from patients with ovarian cancer. Both sera and tissues were stored frozen at -70° C. until use.
as §1
The activity of serum α1,3-fucosyltransferase was measured with the specific substrate 2'-methyl LacNAc and compared with the ability of several other synthetic substrates to act as an acceptor of fucose.
When the structure of the acceptor 2'-methyl LacNAc was modified by replacing the methyl group with sulfate group in C-2', 3', 6' or 6 position and tested their ability to act as the acceptor of fucose, the following novel findings emerged. […] The β-benzyl glycoside of 3' sulfo LacNAc was quite active (168.4%) but less than the parent compound.

As for `CC(=O)N[C@H]1C(O)O[C@H](CO)[C@@H](O[C@@H]2O[C@H](CO)[C@H](O)[C@H](O)[C@H]2O[C@@H]2O[C@@H](C)[C@@H](O)[C@@H](O)[C@@H]2O)[C@@H]1O` (stereo partly shown) [2'-Fucosyl LacNAc, 2'-Fucosyl N-acetyllactosamine], the “Relative Percent” value was 144.7% in assay [1], 436.1% in assay [2] (2'-methyl LacNAc = 100) and 253.1% in assay [3] (2'-methyl LacNAc = 100). The results for the “[14C] Fucose Incorporated (CPM)” value in assay [1], in assay [2] and in assay [3] were 69824 CPM, 32235 CPM and 4379 CPM, respectively.
In the case of `CC(=O)N[C@H]1[C@H](OCc2ccccc2)O[C@H](CO)[C@@H](O[C@@H]2O[C@H](CO)[C@H](O)[C@H](O)[C@H]2O[C@@H]2O[C@@H](C)[C@@H](O)[C@@H](O)[C@@H]2O)[C@@H]1O` [2'-Fucosyl LacNAcβ-O--Bn], the figures for the “Relative Percent” value in assay [1], in assay [2] (2'-methyl LacNAc = 100) and in assay [3] (2'-methyl LacNAc = 100) were 174.0%, 373.0% and 425.0%, respectively. In addition, the “[14C] Fucose Incorporated (CPM)” value was 83975 CPM in assay [1], 27571 CPM in assay [2] and 7352 CPM in assay [3].
For the molecule `CC(=O)N[C@H]1C(O)O[C@H](CO)[C@@H](O[C@@H]2O[C@H](CO)[C@H](O)[C@H](O)[C@H]2OS(=O)(=O)O)[C@@H]1O` (stereo partly shown) [2'-Sulfo LacNAc], the “Relative Percent” value turned out to be 9.8% in assay [1]; 32.7% in assay [2] (2'-methyl LacNAc = 100); 33% in assay [2] (2'-methyl LacNAc = 100, listed as 2' sulfo LacNAc); 32.7% in assay [2] (2'-methyl LacNAc = 100, listed as 2' sulfo-LacNAc); 22.0% in assay [3] (2'-methyl LacNAc = 100). The “[14C] Fucose Incorporated (CPM)” value in assay [1] was 4718 CPM; in assay [2] it was 2414 CPM; in assay [3], 380 CPM.
On to `CO[C@H]1[C@H](O[C@H]2[C@H](O)[C@@H](NC(C)=O)[C@H](OCc3ccccc3)O[C@@H]2CO)O[C@H](CO)[C@H](O)[C@@H]1O` [2'-methyl LacNAcβ-O--Bn], for which the “Relative Percent” value in assay [1] was found to be 149.2%; in assay [2] (2'-methyl LacNAc = 100) it was 113.2%; in assay [3] (2'-methyl LacNAc = 100), 307.9%. In addition, the “[14C] Fucose Incorporated (CPM)” value in assay [1] stood at 71989 CPM; in assay [2], 8367 CPM; in assay [3], 5326 CPM.
For the molecule `CC(=O)N[C@H]1[C@H](OCc2ccccc2)O[C@H](CO)[C@@H](O[C@@H]2O[C@H](CO)[C@H](O)[C@H](OS(=O)(=O)O)[C@H]2O)[C@@H]1O` [3'-Sulfo LacNAcβ-O--Bn, Benzyl 4-0-(sodium β-D-Galactopyranosyl 3-Sulfate)-2-acetamido-2-deoxy-β-D-Glucopyranoside], the “Relative Percent” value in assay [1] is given as 33.3%; in assay [2] (2'-methyl LacNAc = 100), 183.8%; in assay [3] (2'-methyl LacNAc = 100) it was 168.4%. Moreover, the “[14C] Fucose Incorporated (CPM)” value in assay [1] is 16062 CPM; in assay [2], 13585 CPM; in assay [3], 2913 CPM.
In the case of `CC(=O)N[C@H]1C(O)O[C@H](CO)[C@@H](O[C@@H]2O[C@H](CO)[C@H](O)[C@H](O)[C@H]2O)[C@@H]1O[C@@H]1O[C@@H](C)[C@@H](O)[C@@H](O)[C@@H]1O` (stereo partly shown) [3-Fucosyl LacNAc], the results for the “Relative Percent” value in assay [1], in assay [2] (2'-methyl LacNAc = 100) and in assay [3] (2'-methyl LacNAc = 100) were 3.7%, 1.9% and 4.7%, respectively. Besides, the “[14C] Fucose Incorporated (CPM)” value in assay [1] is 1801 CPM; in assay [2], 144 CPM; in assay [3], 82 CPM.
As for `CC(=O)N[C@H]1[C@H](OCc2ccccc2)O[C@H](CO)[C@@H](O)[C@@H]1O[C@@H]1O[C@H](CO)[C@H](O)[C@H](OS(=O)(=O)O)[C@H]1O` [3-SulfoGa1β1,3G1cNAcβ-O--Bn, Benzyl 3-0-(sodium β-D-Galactopyranosy 3-Sulfate)-2-acetamido-2-deoxy-β-D-Glucopyranoside], the “Relative Percent” value was 2.9% in assay [1]; 415.4% in assay [2] (2'-methyl LacNAc = 100); 415.4% in assay [2] (2'-methyl LacNAc = 100, listed as 3-sulfo Galβ1,3GlcNAcβ-O-Bn); 415% in assay [2] (2'-methyl LacNAc = 100, listed as β-benzyl glycoside of 3-sulfoGalβ1, 3 GlcNAc); 0% in assay [3] (2'-methyl LacNAc = 100); “did not show any activity” in assay [3] (2'-methyl LacNAc = 100, listed as 3-Sulfo Galβ1, 3GlcNAcβ-O-Bn). For the same molecule, the “[14C] Fucose Incorporated (CPM)” value in assay [1] was 1382 CPM; in assay [2], 30704 CPM; in assay [3], 0 CPM.
In the case of `CC(=O)N[C@H]1C(O)O[C@H](CO)[C@@H](O[C@@H]2O[C@H](COS(=O)(=O)O)[C@H](O)[C@H](O)[C@H]2O)[C@@H]1O` (stereo partly shown) [6'-Sulfo LacNAc], the “Relative Percent” value in assay [1] stood at 42.6%; in assay [2] (2'-methyl LacNAc = 100) it was 5.3%; in assay [2] (2'-methyl LacNAc = 100, listed as 6' sulfo LacNAc) it was 5%; in assay [2] (2'-methyl LacNAc = 100, listed as 6-'-sulfo LacNAc) it was 5.3%; in assay [3] (2'-methyl LacNAc = 100), 36.2%. In addition, the “[14C] Fucose Incorporated (CPM)” value in assay [1] is 20543 CPM; in assay [2] it was 395 CPM; in assay [3] it was 626 CPM.
For the molecule `CC(=O)N[C@H]1C(O)O[C@H](COS(=O)(=O)O)[C@@H](O[C@@H]2O[C@H](CO)[C@H](O)[C@H](O)[C@H]2O)[C@@H]1O` (stereo partly drawn) [6-Sulfo LacNAc, β-D-GALACTOPYRANOSYL-(1→4)-SODIUM 2-ACETAMIDO-2-DEOXY-D-GLUCOPYRANOSE 6-SULFATE], the “Relative Percent” value in assay [1] is 53.3%; in assay [2] (2'-methyl LacNAc = 100) it was 272.6%; in assay [2] (2'-methyl LacNAc = 100, listed as 6-sulfo LacNAc), 272% and 272.6%; in assay [3] (2'-methyl LacNAc = 100), 172.4%. The “[14C] Fucose Incorporated (CPM)” value in assay [1] was found to be 25740 CPM; in assay [2], 20148 CPM; in assay [3], 2983 CPM.
With `CC(=O)N[C@H]1[C@@H](Oc2ccccc2[N+](=O)[O-])O[C@H](CO[C@@H]2O[C@H](CO)[C@@H](O)[C@H](O)[C@H]2NC(C)=O)[C@H](O)[C@@H]1O` [G1cNAcβ1,6Ga1NAcα-O--ONp], the “Relative Percent” value in assay [2] (2'-methyl LacNAc = 100) is recorded as 0%; in assay [3] (2'-methyl LacNAc = 100) it was 9.5%. Further, the “[14C] Fucose Incorporated (CPM)” value worked out at 0 CPM in assay [2] and 164 CPM in assay [3].
`CO[C@@H]1O[C@H](CO)[C@H](O)[C@H](O[C@@H]2O[C@H](CO)[C@@H](O)[C@H](O[C@@H]3O[C@H](CO)[C@H](O)[C@H](O)[C@H]3O)[C@H]2NC(C)=O)[C@H]1O` [Ga1β1,3G1cNAcβ1,3Ga1β-O--Me]: the “Relative Percent” value stood at 42.6% in assay [1] and 42.7% in assay [3] (2'-methyl LacNAc = 100). The results for the “[14C] Fucose Incorporated (CPM)” value in assay [1] and in assay [3] were 20559 CPM and 739 CPM, respectively.
